Experimental data as given in patent US10201532B2, “Compounds and their use” (ALLECRA THERAPEUTICS GMBH, priority 2010, dated 2019).

Columns and labels:
[1] = test system: K. pneumoniae 700603 (SHV-18); assay: MIC of Piperacillin with inhibitor, ESBL isolates; type: cell-based, Klebsiella pneumoniae
E. coli BAA-197 (TEM-12) = assay: MIC of Piperacillin with inhibitor, ESBL isolates; type: cell-based, Escherichia coli
E. coli Ecoli233 (KPC3) = assay: Disk zone of inhibition, antibiotic + Compound-1 on same disk (Methodology 2); type: cell-based, Escherichia coli
Excerpt: (§1) In this experiment, Compound-1 is used as a diagnostic reagent for the detection of β-lactamases belonging to the families KPC & ESBL (e.g., SHV18) producing Enterobacteriaceae. A simple set of absorbent paper disks impregnated with antibiotic on agar medium is used for the detection.
(§2) • 0.5 McFarland of the test organism was inoculated at 1:10 dilution on Muller • Hinton Agar plates • Test organisms: Klebsiella pneumoniae (K.p) ATCC BAA-1705, Klebsiella pneumoniae ATCC 700603, Escherichia coli (E.c) Ecoli233 • Carbapenem (e.g., Imipenem [IPM] 10 μg) and cephalosporin (e.g., Ceftazidime [CAZ] 30 μg) paper disks (7 mm) were placed on the inoculated agar plates • Compound-1 (60 μg) disk was placed at a distance of 7 & 10 mm from the carbapenem and cephalosporin disks. • The presence of expressed carbapenemases or ESBLs was measured as the expansion of Imipenem or Ceftazidime's inhibition zones due to synergy in the presence of Compound-1.
(§3) The methodology remains the same as Methodology 1 except the following change • Compound-1 (60 μg) was added on the same disk in combination with a carbapenem (e.g., Imipenem 10 μg) or cephalosporin (e.g., Ceftazidime 30 μg) and placed on the inoculated agar plate. • The presence of the expressed carbapenemases or ESBLs was measured as an increase in Imipenem or Ceftazidime's zone diameter in combination with Compound-1 compared to antibiotic alone. Results

[2] = test system: K. pneumoniae ATCC 700603 (SHV18); assay: as above; type: cell-based, Klebsiella pneumoniae
Excerpt: as §1
as §2, with “Compound-1. Results:” for “Compound-1.”
as §3

[3] = Ceftazidime 30 μg + Compound-1 60 μg on same disk
[4] = Imipenem 10 μg + Compound-1 60 μg on same disk

## C[C@]1(Cn2ccnn2)[C@H](C(=O)O)N2C(=O)C[C@H]2S1(=O)=O [Tazobactam]
[1]; inhibitor at 1 μg/mL
  MIC of Piperacillin with inhibitor: 16 µg/mL
[1]; inhibitor at 2 μg/mL
  MIC of Piperacillin with inhibitor: 16 µg/mL
[1]; inhibitor at 4 μg/mL
  MIC of Piperacillin with inhibitor: 16 µg/mL
E. coli BAA-197 (TEM-12); inhibitor at 1 μg/mL
  MIC of Piperacillin with inhibitor: 64 µg/mL
E. coli BAA-197 (TEM-12); inhibitor at 2 μg/mL
  MIC of Piperacillin with inhibitor: 8 µg/mL
E. coli BAA-197 (TEM-12); inhibitor at 4 μg/mL
  MIC of Piperacillin with inhibitor: 4 µg/mL

## C[n+]1ccn(C[C@@]2(C)[C@H](C(=O)[O-])N3C(=O)C[C@H]3S2(=O)=O)n1 [Compound-1, 1-{[(2S,3S,5R)-2-Carboxy-3-methyl-4,4,7-trioxo-4-thia-1-azabicyclo[3.2.0]hept-3-yl]methyl}-3-methyl-1H-1,2,3-triazol-3-ium]
E. coli Ecoli233 (KPC3); [3]
  ZOI of CAZ + Compound-1: 22.5 mm
E. coli Ecoli233 (KPC3); [4]
  ZOI of IPM + Compound-1: 20 mm
[2]; [3]
  ZOI of CAZ + Compound-1: 23 mm
[2]; [4]
  ZOI of IPM + Compound-1: 25 mm
